Assay results published in PubChem BioAssay AID256 (DTP/NCI, 2004).
Where “and” joins values, the source holds several entries; their conditions need not be identical. Equal values may be shown once. Toxic doses and inconclusive results are not listed. The calls were made as follows: active = survival T/C of 150% or more; inactive = T/C below 125% in these data.

Test system: CD2F1 mice, L1210 leukemia ip, survival T/C
Assay: NCI In Vivo Anticancer Drug Screen. Data for tumor model L1210 Leukemia (intraperitoneal) in CD2F1 (CDF1) mice
Details: endpoint: mean survival time, higher = longer survival
Method in brief: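 Compound-dosed mice with transplantable tumor versus matched vehicle controls; endpoint ratio T/C reported.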

[1] = dose: 100.0 mg/kg/injection, schedule: Q04DX003 (ip), vehicle: saline
[2] = dose: 200.0 mg/kg/injection, schedule: Q04DX003 (ip), vehicle: saline
[3] = dose: 12.5 mg/kg/injection, schedule: Q01DX009 (ip), vehicle: saline
[4] = dose: 100.0 mg/kg/injection, schedule: Q01DX001 (ip), vehicle: saline
[5] = dose: 200.0 mg/kg/injection, schedule: Q01DX001 (ip), vehicle: saline
[6] = dose: 400.0 mg/kg/injection, schedule: Q01DX001 (ip), vehicle: saline
[7] = dose: 100.0 mg/kg/injection, schedule: Q01DX009 (ip), vehicle: saline with Tween-80
[8] = dose: 100.0 mg/kg/injection, schedule: Q04DX003 (ip), vehicle: saline with Tween-80
[9] = dose: 200.0 mg/kg/injection, schedule: Q01DX009 (ip), vehicle: saline with Tween-80
[10] = dose: 200.0 mg/kg/injection, schedule: Q04DX003 (ip), vehicle: saline with Tween-80
[11] = dose: 400.0 mg/kg/injection, schedule: Q01DX009 (ip), vehicle: saline with Tween-80
[12] = dose: 400.0 mg/kg/injection, schedule: Q04DX003 (ip), vehicle: saline with Tween-80

Measured: T/C

CCCCCC(O)CCC(=O)NN (stereo not given)
inactive: [1] 100 % of control | [2] 117 % of control

CC(CN(C)C)CN1c2ccccc2Sc2ccc(C(F)(F)F)cc21 (stereo not given)
inactive: dose: 0.63 mg/kg/injection, schedule: Q04DX003 (ip), vehicle: saline 94 % of control | dose: 1.25 mg/kg/injection, schedule: Q04DX003 (ip), vehicle: saline 96 % of control | dose: 2.5 mg/kg/injection, schedule: Q04DX003 (ip), vehicle: saline 91 % of control | dose: 6.25 mg/kg/injection, schedule: Q01DX009 (ip), vehicle: saline 91 % of control | [3] 102 % of control

CCCOC(=O)C(SCCN(C)C)c1ccccc1 (stereo not given)
inactive: [4] 102 % of control | dose: 100.0 mg/kg/injection, schedule: Q01DX009 (ip), vehicle: saline 93 % of control | [5] 97 % of control | dose: 200.0 mg/kg/injection, schedule: Q01DX009 (ip), vehicle: saline 100 % of control | [6] 94 % of control | dose: 400.0 mg/kg/injection, schedule: Q01DX009 (ip), vehicle: saline 98 % of control

CCCC(C)(C)OC(=O)c1ccc([N+](=O)[O-])cc1
inactive: [4] 96 % of control | [5] 98 % of control | [6] 100 % of control

C#CCN(CC#C)C(=O)CCCCCCCCC=C
inactive: [7] 90 % of control | [8] 107 % of control | [9] 93 % of control | [10] 92 % of control | [11] 93 % of control | [12] 98 % of control

Nc1cccc2c1C(=O)c1cccc(Cl)c1C2=O
inactive: [7] 95 % of control | [9] 106 % of control | [11] 109 % of control

O=C(Nc1cccc(C2=NCCN2)c1)c1ccc(C(=O)Nc2cccc(C3=NCCN3)c2)c(Cl)c1
inactive: dose: 1.0 mg/kg/injection, schedule: Q01DX009 (ip), vehicle: saline 95 % of control | dose: 2.0 mg/kg/injection, schedule: Q01DX009 (ip), vehicle: saline 92 % of control | dose: 4.0 mg/kg/injection, schedule: Q01DX009 (ip), vehicle: saline 98 % of control | dose: 8.0 mg/kg/injection, schedule: Q01DX009 (ip), vehicle: saline 113 % of control

CNN=C1CCCC1
inactive: [3] 97 % of control | dose: 25.0 mg/kg/injection, schedule: Q01DX009 (ip), vehicle: saline 102 % of control

O=C(O)CC(C(=O)O)C(=O)O
inactive: [1] 100 % of control | [2] 97 % of control | dose: 400.0 mg/kg/injection, schedule: Q04DX003 (ip), vehicle: saline 94 % of control

CC(=O)CC(=O)OCOC(=O)CC(C)=O
inactive: dose: 100.0 mg/kg/injection, schedule: Q04DX003 (ip), vehicle: Klucel (hydroxypropylcellulose) (HPC) 102 % of control | dose: 200.0 mg/kg/injection, schedule: Q04DX003 (ip), vehicle: Klucel (hydroxypropylcellulose) (HPC) 106 % of control | dose: 400.0 mg/kg/injection, schedule: Q04DX003 (ip), vehicle: Klucel (hydroxypropylcellulose) (HPC) 106 % of control

O=C(O)/C=C/C(=O)Nc1cc2c(cc1Br)-c1ccccc1C2O (stereo not given)
inactive: [8] 100 % of control | [10] 102 % of control | [12] 94 % of control

O=C(c1ccccc1)C1(c2ccccc2)CC1
inactive: [8] 108 % of control | [10] 101 % of control | [12] 101 % of control

CC(C)(CCl)C(=O)O
inactive: dose: 50.0 mg/kg/injection, schedule: Q01DX009 (ip), vehicle: saline with Tween-80 110 % of control | [7] 104 % of control | [8] 100 % of control | [9] 93 % of control | [10] 104 % of control

O=C(NC1CCCCC1)OCc1c(COC(=O)NC2CCCCC2)c(-c2ccc(Cl)c(Cl)c2)n2c1CCC2
active: [9] 151 % of control and 157 % of control
inactive: dose: 12.5 mg/kg/injection, schedule: Q01DX009 (ip), vehicle: saline with Tween-80 119 % of control and 112 % of control | dose: 25.0 mg/kg/injection, schedule: Q01DX009 (ip), vehicle: saline with Tween-80 112 % of control | [7] 122 % of control | [11] 121 % of control and 97 % of control

COc1ccc(CCNC(=O)Cc2ccc3cc(OC)c(OC)cc3c2)cc1OC
inactive: [7] 91 % of control | [8] 95 % of control | [9] 89 % of control | [10] 100 % of control

CC(=O)C1CCC2c3cc4c(c(C)c3CCC12C)CCC(OC(=O)C1CCCCC1)C4 (stereo not given)
inactive: [8] 101 % of control | [10] 101 % of control | [12] 104 % of control
